Columns and labels:
[1] = target: T1, G12C-mutant human KRAS (amino acid residues 1-188) (Homo sapiens, UniProt P01116, G12C); test: KRAS Binding Disruption Assay (AlphaScreen; biotinylated KRpep-2d analogue or RAF1-RBD), G12C; settings: geometric mean, read-out: KRAS GMean IC50 (uM) MUTATION: G12C
T1 construct: G12D or G12C-mutant human KRAS (amino acid residues 1-188) with FLAG tag; made in house; host or cells: E. coli
Experimental: Compound binding disrupts the interaction of KRpep-2d or RAF1-RBD with KRAS, leading to a decrease in Alpha signal.
All assay components were prepared in 20 mM HEPES (pH 7.5), 100 mM NaCl, 5 mM MgCl2, 0.01% Tween-20, and 0.01% BSA. Biotinylated analogues of KRpep-2d were custom synthesized. The binding disruption assays were performed using 5-20 nM of mutant KRAS and 5-20 nM of either biotinylated KRpep-2d analogue or RAF1-RBD. 19 μL of KRAS protein and 4 μL of biotinylated KRpep-2d or RAF1-RBD were added to the wells of a 384-well plate containing 1 μL of various concentrations of test compound or DMSO vehicle. 16 wells containing KRAS, biotinylated KRpep-2d or RAF1-RBD, and 5% DMSO served as high controls. 16 wells containing KRAS only and 5% DMSO served as low controls. Binding reactions were incubated for 1 hour at 25° C., then Anti-Flag Acceptor and Streptavidin Donor Alpha beads were added at a final concentration of 10 μg/mL for an additional hour at room temperature. Alpha signal was read out on a Perkin Elmer Envision HTS instrument. The percentage inhibition at individual compound concentrations relative to high and low controls was calculated. The data were analyzed by using nonlinear regression to generate IC50 values.

[2] = target: T2, G12D-mutant human KRAS (amino acid residues 1-188) (Homo sapiens, UniProt P01116, G12D); test: KRAS Binding Disruption Assay (AlphaScreen; biotinylated KRpep-2d analogue or RAF1-RBD), G12D; settings: KRAS G12D; geometric mean; read-out: KRAS GMean IC50 (uM) MUTATION: G12D
T2 construct: G12D or G12C-mutant human KRAS (amino acid residues 1-188) with FLAG tag; made in house; host or cells: E. coli
T2 sequence (P01116 1-188 isoform P01116-2 G12D): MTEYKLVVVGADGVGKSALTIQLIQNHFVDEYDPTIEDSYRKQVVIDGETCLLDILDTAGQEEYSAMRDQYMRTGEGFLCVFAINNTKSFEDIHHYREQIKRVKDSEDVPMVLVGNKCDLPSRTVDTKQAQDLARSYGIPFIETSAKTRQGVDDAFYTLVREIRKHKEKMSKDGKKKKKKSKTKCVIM
Summary of the method: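 Mutant KRAS (5-20 nM) incubated 1 h at 25° C with test compound and 5-20 nM biotinylated KRpep-2d analogue or RAF1-RBD in 20 mM HEPES pH 7.5, 100 mM NaCl, 5 mM MgCl2, 0.01% Tween-20, 0.01% BSA.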

T1 sequence (P01116 1-188 isoform P01116-2 G12C): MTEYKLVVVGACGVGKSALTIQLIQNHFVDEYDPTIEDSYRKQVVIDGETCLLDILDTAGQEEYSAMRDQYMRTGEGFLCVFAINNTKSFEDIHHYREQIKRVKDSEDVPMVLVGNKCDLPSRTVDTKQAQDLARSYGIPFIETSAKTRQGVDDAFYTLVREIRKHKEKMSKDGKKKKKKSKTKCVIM

IC50 [1] [µM]	IC50 [2] [µM]	SMILES
0.0001 to 10	0.0001 to 10	NS(=O)(=O)N1[C@@H]2CC[C@H]1CN(c1nc(OCC34CCCN3CCC4)nc3c(F)c(-c4cc(O)cc5ccccc45)ccc13)C2 [P-0662, (1R,5S)-3-(8-fluoro-7-(3-hydroxynaphthalen-1-yl)-2-((tetrahydro-1H-pyrrolizin-7a(5H)-yl)methoxy)quinazolin-4-yl)-3,8-diazabicyclo[3.2.1]octane-8-sulfonamide]
0.0001 to 10	0.0001 to 10	CN1CCC[C@H]1COc1nc(N2C[C@H]3CC[C@@H](C2)N3S(N)(=O)=O)c2ccc(-c3cc(O)cc4ccccc34)c(F)c2n1 [P-0663, (1R,5S)-3-(8-fluoro-7-(3-hydroxynaphthalen-1-yl)-2-(((S)-1-methylpyrrolidin-2-yl)methoxy)quinazolin-4-yl)-3,8-diazabicyclo[3.2.1]octane-8-sulfonamide]
0.0001 to 10	0.0001 to 10	N#Cc1cccc2[nH]cc(-c3ccc4c(N5C[C@H]6CC[C@@H](C5)N6)nc(OCC56CCCN5CCC6)nc4c3F)c12 [P-0666, 3-(4-((1R,5S)-3,8-diazabicyclo[3.2.1]octan-3-yl)-8-fluoro-2-((tetrahydro-1H-pyrrolizin-7a(5H)-yl)methoxy)quinazolin-7-yl)-1H-indole-4-carbonitrile]
0.0001 to 10	0.0001 to 10	CCN1CCC[C@H]1COc1nc(N2C[C@H]3CC[C@@H](C2)N3)c2ccc(-c3cc(O)cc4ccccc34)c(F)c2n1 [P-0667, 4-(4-((1R,5S)-3,8-diazabicyclo[3.2.1]octan-3-yl)-2-(((S)-1-ethylpyrrolidin-2-yl)methoxy)-8-fluoroquinazolin-7-yl)naphthalen-2-ol]
100 to 1000	0.0001 to 10	Oc1cc(-c2ccc3c(N4C[C@H]5CC[C@@H](C4)N5)nc(CNC4CC(O)C4)nc3c2)c2ccccc2c1 (stereo partly drawn) [P-0670, 4-(4-((1R,5S)-3,8-diazabicyclo[3.2.1]octan-3-yl)-2-(((3-hydroxycyclobutyl)amino)methyl)quin-azolin-7-yl)naphthalen-2-ol]
10 to 100	0.0001 to 10	Oc1cc(-c2ccc3c(N4C[C@H]5CC[C@@H](C4)N5)nc(CN[C@H]4CCOC4)nc3c2)c2ccccc2c1 [P-0671, 4-(4-((1R,5S)-3,8-diazabicyclo[3.2.1]octan-3-yl)-2-((((S)-tetrahydrofuran-3-yl)amino)methyl)quinazolin-7-yl)naphthalen-2-ol]
10 to 100	0.0001 to 10	Oc1cc(-c2ccc3c(N4CC5CCC(C4)N5)nc(CN[C@@H]4CCC[C@H]4O)nc3c2)c2ccccc2c1 [P-0672, 4-(4-((1R,5S)-3,8-diazabicyclo[3.2.1]octan-3-yl)-2-((((1R,2R)-2-hydroxycyclopentyl)amino)methyl)quin-azolin-7-yl)naphthalen-2-ol]
10 to 100	0.0001 to 10	Oc1cc(-c2ccc3c(N4C[C@H]5CC[C@@H](C4)N5)nc(CNC4CC4)nc3c2)c2ccccc2c1 [P-0673, 4-(4-((1R,5S)-3,8-diazabicyclo[3.2.1]octan-3-yl)-2-((cyclopropylamino)methyl)quinazolin-7-yl)naphthalen-2-ol]
0.0001 to 10	0.0001 to 10	NCCCN1CCC[C@H]1COc1nc(N2C[C@H]3CC[C@@H](C2)N3)c2ccc(-c3cc(O)cc4ccccc34)c(F)c2n1 [P-0675, 4-(2-(((S)-1-(3-aminopropyl)pyrrolidin-2-yl)methoxy)-4-((1R,5S)-3,8-diazabicyclo[3.2.1]octan-3-yl)-8-fluoroquinazolin-7-yl)naphthalen-2-ol]
10 to 100	0.0001 to 10	O=C(NCCCN1CCC[C@H]1COc1nc(N2C[C@H]3CC[C@@H](C2)N3)c2ccc(-c3cc(O)cc4ccccc34)c(F)c2n1)OCc1ccccc1 [P-0676, benzyl (3-((S)-2-(((4-((1R,5S)-3,8-diazabicyclo[3.2.1]octan-3-yl)-8-fluoro-7-(3-hydroxynaphthalen-1-yl)quinazolin-2-yl)oxy)methyl)pyrrolidin-1-yl)propyl)carbamate]
10 to 100	0.0001 to 10	O=C(OCc1ccccc1)N1CCC[C@H]1COc1nc(N2C[C@H]3CC[C@@H](C2)N3)c2ccc(-c3cc(O)cc4ccccc34)c(F)c2n1 [P-0677, benzyl (S)-2-(((4-((1R,5S)-3,8-diazabicyclo[3.2.1]octan-3-yl)-8-fluoro-7-(3-hydroxynaphthalen-1-yl)quinazolin-2-yl)oxy)methyl)pyrrolidine-1-carboxylate]
0.0001 to 10	0.0001 to 10	Fc1ccc2[nH]cc(-c3ccc4c(N5C[C@H]6CC[C@@H](C5)N6)nc(OCC56CCCN5CCC6)nc4c3F)c2c1Cl [P-0678, 4-((1R,5S)-3,8-diazabicyclo[3.2.1]octan-3-yl)-7-(4-chloro-5-fluoro-1H-indol-3-yl)-8-fluoro-2-((tetrahydro-1H-pyrrolizin-7a(5H)-yl)methoxy)quinazoline]
0.0001 to 10	0.0001 to 10	Fc1cc2c(N3C[C@H]4CC[C@@H](C3)N4)nc(OCC34CCCN3CCC4)nc2c(F)c1-c1c[nH]c2ccc(F)c(Cl)c12 [P-0679, 4-((1R,5S)-3,8-diazabicyclo[3.2.1]octan-3-yl)-7-(4-chloro-5-fluoro-1H-indol-3-yl)-6,8-difluoro-2-((tetrahydro-1H-pyrrolizin-7a(5H)-yl)methoxy)quinazoline]
100 to 1000	0.0001 to 10	O=C1CCC2(CN(c3nc(N4C[C@H]5CC[C@@H](C4)N5)c4ccc(-c5cc(O)cc6ccccc56)c(F)c4n3)C2)N1 [P-0680, 2-(4-((1R,5S)-3,8-diazabicyclo[3.2.1]octan-3-yl)-8-fluoro-7-(3-hydroxynaphthalen-1-yl)quinazolin-2-yl)-2,5-diazaspiro[3.4]octan-6-one]
100 to 1000	0.0001 to 10	Oc1cc(-c2ccc3c(N4C[C@H]5CC[C@@H](C4)N5)nc(NCC4(O)CCC4)nc3c2F)c2ccccc2c1 [P-0681, 4-(4-((1R,5S)-3,8-diazabicyclo[3.2.1]octan-3-yl)-8-fluoro-2-(((1-hydroxycyclobutyl)methyl)amino)quin-azolin-7-yl)naphthalen-2-ol]
10 to 100	0.0001 to 10	Oc1cc(-c2ccc3c(N4C[C@H]5CC[C@@H](C4)N5)nc(N4CC5(CCCN5)C4)nc3c2F)c2ccccc2c1 [P-0682, 4-(4-((1R,5S)-3,8-diazabicyclo[3.2.1]octan-3-yl)-8-fluoro-2-(2,5-diazaspiro[3.4]octan-2-yl)quinazolin-7-yl)naphthalen-2-ol]
100 to 1000	0.0001 to 10	CC(C)(O)C1CN(c2nc(N3C[C@H]4CC[C@@H](C3)N4)c3ccc(-c4cc(O)cc5ccccc45)c(F)c3n2)C1 [P-0683, 4-(4-((1R,5S)-3,8-diazabicyclo[3.2.1]octan-3-yl)-8-fluoro-2-(3-(2-hydroxypropan-2-yl)azetidin-1-yl)quinazolin-7-yl)naphthalen-2-ol]
100 to 1000	0.0001 to 10	CN1CCN(c2nc(N3C[C@H]4CC[C@@H](C3)N4)c3ccc(-c4cc(O)cc5ccccc45)c(F)c3n2)CC1 [P-0684, 4-(4-((1R,5S)-3,8-diazabicyclo[3.2.1]octan-3-yl)-8-fluoro-2-(4-methylpiperazin-1-yl)quinazolin-7-yl)naphthalen-2-ol]
10 to 100	0.0001 to 10	Oc1cc(-c2ccc3c(N4C[C@H]5CC[C@@H](C4)N5)nc(N4C[C@@H](O)[C@H](O)C4)nc3c2F)c2ccccc2c1 [P-0685, (3R,4R)-1-(4-((1R,5S)-3,8-diazabicyclo[3.2.1]octan-3-yl)-8-fluoro-7-(3-hydroxynaphthalen-1-yl)quinazolin-2-yl)pyrrolidine-3,4-diol]
100 to 1000	0.0001 to 10	OCC1(CO)CN(c2nc(N3C[C@H]4CC[C@@H](C3)N4)c3ccc(-c4cc(O)cc5ccccc45)c(F)c3n2)C1 [P-0686, (1-(4-((1R,5S)-3,8-diazabicyclo[3.2.1]octan-3-yl)-8-fluoro-7-(3-hydroxynaphthalen-1-yl)quinazolin-2-yl)azetidine-3,3-diyl)dimethanol]
100 to 1000	0.0001 to 10	Oc1cc(-c2ccc3c(N4C[C@H]5CC[C@@H](C4)N5)nc(N4C[C@@H](O)[C@@H](O)C4)nc3c2F)c2ccccc2c1 [P-0687, (3S,4R)-1-(4-((1R,5S)-3,8-diazabicyclo[3.2.1]octan-3-yl)-8-fluoro-7-(3-hydroxynaphthalen-1-yl)quinazolin-2-yl)pyrrolidine-3,4-diol]
10 to 100	0.0001 to 10	Oc1cc(-c2ccc3c(N4CC5CCC(C4)N5)nc(OCC4CCCC4O)nc3c2F)c2ccccc2c1 [P-0688, 4-(4-((1R,5S)-3,8-diazabicyclo[3.2.1]octan-3-yl)-8-fluoro-2-((2-hydroxycyclopentyl)methoxy)quinazo-lin-7-yl)naphthalen-2-ol]
